{"source": "paper PMC7048932", "about": "“Examining sterically demanding lysine analogs for histone lysine methyltransferase catalysis” (Scientific Reports, 2020)", "target": "T1, G9a (Homo sapiens, UniProt Q96KQ7)", "T1 construct": "His6 (N); made in house; host or cells: E. coli BL21 (DE3)pLysS-rosetta", "T1 sequence (Q96KQ7 1-1210)": "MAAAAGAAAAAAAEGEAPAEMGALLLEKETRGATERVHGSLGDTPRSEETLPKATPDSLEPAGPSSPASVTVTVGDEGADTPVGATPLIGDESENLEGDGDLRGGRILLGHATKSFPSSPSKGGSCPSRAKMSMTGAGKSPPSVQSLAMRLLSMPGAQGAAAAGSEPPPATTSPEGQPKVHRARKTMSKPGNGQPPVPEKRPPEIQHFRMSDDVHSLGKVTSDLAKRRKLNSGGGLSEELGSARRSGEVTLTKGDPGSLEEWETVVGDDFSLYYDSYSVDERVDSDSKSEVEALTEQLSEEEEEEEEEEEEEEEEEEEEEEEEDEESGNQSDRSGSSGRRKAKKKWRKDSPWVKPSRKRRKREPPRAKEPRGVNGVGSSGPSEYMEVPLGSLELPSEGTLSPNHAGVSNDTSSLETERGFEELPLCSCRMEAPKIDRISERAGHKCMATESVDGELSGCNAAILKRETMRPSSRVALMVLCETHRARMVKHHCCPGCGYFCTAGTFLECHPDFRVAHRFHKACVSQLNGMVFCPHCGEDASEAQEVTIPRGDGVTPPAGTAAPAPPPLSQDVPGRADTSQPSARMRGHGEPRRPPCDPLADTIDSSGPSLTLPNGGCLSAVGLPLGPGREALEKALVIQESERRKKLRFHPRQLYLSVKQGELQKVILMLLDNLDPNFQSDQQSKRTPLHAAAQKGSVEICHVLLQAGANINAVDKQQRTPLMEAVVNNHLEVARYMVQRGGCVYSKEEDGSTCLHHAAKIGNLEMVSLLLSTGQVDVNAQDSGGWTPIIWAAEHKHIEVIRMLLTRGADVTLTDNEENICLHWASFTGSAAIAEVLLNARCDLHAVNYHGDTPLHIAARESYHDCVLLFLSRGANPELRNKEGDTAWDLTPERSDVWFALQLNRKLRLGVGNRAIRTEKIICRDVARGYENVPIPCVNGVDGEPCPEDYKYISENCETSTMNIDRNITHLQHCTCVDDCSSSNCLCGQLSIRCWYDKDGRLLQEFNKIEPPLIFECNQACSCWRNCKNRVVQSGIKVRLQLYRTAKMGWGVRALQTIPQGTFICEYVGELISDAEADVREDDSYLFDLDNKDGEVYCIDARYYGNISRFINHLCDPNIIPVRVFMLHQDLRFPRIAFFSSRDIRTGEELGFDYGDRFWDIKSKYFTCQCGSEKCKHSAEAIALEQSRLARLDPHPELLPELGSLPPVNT", "test": "MALDI-TOF MS methylation assay of H3K9 peptides with G9a", "format": "biochemical", "conditions": "peptide 100 µM, G9a 2 µM, SAM 500 µM, 1 h, 37 °C", "experimental": "MALDI-MS methyltransferases activity experiments were performed using a Bruker instrument in the reflectron positive mode. For regular methyltransferase standard conditions experiment which carried out in 30 µL total volume, the mixture contains peptide (100 µM), SAM (200 µM), SETD8 or SETD7 (2 µM), in assay buffer 50 mM Tris at optimal pH 8.0. In case of G9a and GLP, similar conditions were used, except (500 µM) of SAM was added to the reaction mixture. Samples were incubated in an Eppendorf vial 1.5 mL using thermomixer for 1 h at 37 °C. A 5 µL aliquot of the solution was mixed with 5 µL of MeOH, after which 5 µL of this mixture was mixed with 5 µL of α-cyano-4-hydroxycinamic acid matrix (CHCA, 5 mg/mL in 125:125 µL acetonitrile/water). The spots were placed on a stainless steel MALDI plate (MS 96 target ground steel BC of Bruker, Germany). The mass corresponding to one monomethylation observed as +14 Da, dimethylation observed as +28 Da and trimethylation observed as +42 Da. The enzymatic activity was determined by taking the peak areas of each methylation state, including all isotopes and adducts, and was annotated using FlexAnalysis software (Bruker Daltonics, Germany). […] Methylated peptide substrates were repeated five times and the unmethylated substrates were triplicated. Sequences of the examined peptides are given in (Supplementary Table 1)."}
{"substance": "ARTKQTAR(Kba9)STGGKA [H3Kba9]", "values": [{"measurement": "G9a-catalyzed methylation, result in words", "result": "traces detected"}, {"measurement": "G9a-catalyzed methylation, result in words", "setting": "listed as H3K ba9", "result": "trace of monomethylation"}]}
